pIC50: −log10 of the molar value. Converted amounts (≈) assume the structure as drawn. Like-named read-outs stand apart in the source and are kept apart here.
Experiments:
P2X7 receptor = target: T1, P2X7 receptor (Homo sapiens, UniProt Q99572); assay: IL-1β release assay in differentiated THP-1 cells stimulated with BzATP (Example 9); type: cell-based; settings: BzATP 250 uM; for inhibition at 0.3 µM / inhibition at 0.1 µM: differentiated THP-1 cells, read-out: IL-1β % Inhib. @ 0.3 or 0.1 uM; for pIC50: THP-1 cells, IL-1β by ELISA
T1 construct: host or cells: THP-1 cells differentiated with LPS and IFN-γ
T1 sequence (Q99572 1-595): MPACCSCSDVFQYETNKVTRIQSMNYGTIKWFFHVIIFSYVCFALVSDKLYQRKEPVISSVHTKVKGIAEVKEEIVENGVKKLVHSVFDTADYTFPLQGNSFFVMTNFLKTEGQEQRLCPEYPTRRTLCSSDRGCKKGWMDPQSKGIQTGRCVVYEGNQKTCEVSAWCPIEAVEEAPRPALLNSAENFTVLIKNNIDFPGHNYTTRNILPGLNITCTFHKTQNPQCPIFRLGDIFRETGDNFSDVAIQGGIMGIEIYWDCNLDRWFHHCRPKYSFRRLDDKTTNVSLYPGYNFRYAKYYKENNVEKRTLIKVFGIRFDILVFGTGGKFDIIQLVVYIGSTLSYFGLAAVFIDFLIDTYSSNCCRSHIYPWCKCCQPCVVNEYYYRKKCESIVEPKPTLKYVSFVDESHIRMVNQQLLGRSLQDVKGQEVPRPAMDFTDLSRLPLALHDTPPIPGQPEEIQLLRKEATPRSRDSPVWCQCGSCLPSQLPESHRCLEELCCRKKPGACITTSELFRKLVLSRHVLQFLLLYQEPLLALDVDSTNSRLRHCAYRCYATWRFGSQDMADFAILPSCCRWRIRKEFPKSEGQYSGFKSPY
Summary of the method: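 THP-1 cells differentiated 16 h with 100 ng/mL LPS and 100 ng/mL IFN-γ, primed 2 h with fresh LPS, pretreated 30 min with compound, then stimulated 45 min with 250 uM BzATP (final). Supernatant IL-1β measured by ELISA; background-adjusted percent inhibition fitted to a four-parameter logistic for IC50.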

[1] = Determination of aqueous (kinetic) solubility; type: physicochemical; settings: aqueous buffer, kinetic from dmso stock, buffer pH 7.4
Experimental: The mixture was vortexed for 1 hour and equilibrated overnight at room temperature. The mixture was filtered through a saturated filter and the filtrate was analyzed by LC/MS/MS.
For the purpose of Table 5, solubility of each compound is expressed as follows: […]

| SMILES | solubility [1] [µM] | inhibition at 0.3 µM (P2X7 receptor; 0.3 μM compound, "+" symbols) [%] | other results |
| --- | --- | --- | --- |
| O=C(Cc1ccc(C(F)(F)F)cc1)Nc1cccc2c(=O)n(CCO)ccc12 [Compound 7] | < 25 | – | inhibition at 0.3 µM (P2X7 receptor; 0.3 μM compound (symbols +)): 26 to 50% |
| C[C@H](CO)n1ccc2c(NC(=O)Cc3ccc(C(F)(F)F)cc3C(F)(F)F)cccc2c1=O [Compound 361] | > 75 | > 76 | – |
| C[C@H](CO)n1ccc2c(NC(=O)Cc3ccc(Cl)c(Cl)c3)cccc2c1=O [Compound 333, 2-(3,4-Dichloro-phenyl)-N-[2-((R)-2-hydroxy-1-methyl-ethyl)-1-oxo-1,2-dihydro-isoquinolin-5-yl]-acetamide] | > 75 | > 76 | – |
| C[C@H](C(N)=O)n1ccc2c(NC(=O)Cc3ccc(F)c(Br)c3)cccc2c1=O [Compound 307] | < 25 | > 76 | – |
| C[C@@H](C(N)=O)n1ccc2c(NC(=O)Cc3ccc(Cl)cc3C(F)(F)F)cccc2c1=O [Compound 237, (S)-2-{5-[2-(4-Chloro-2-trifluoromethyl-phenyl)-acetylamino]-1-oxo-1H-isoquinolin-2-yl}-propionamide] | 26 to 50 (≈ 11.7 to 22.6 µg/mL) | > 76 | – |
| CC(C)[C@H](C(N)=O)n1ccc2c(NC(=O)[C@@H](C)c3ccc(Cl)cc3)cccc2c1=O [Compound 283] | > 75 | > 76 | – |
| C[C@H](C(N)=O)n1ccc2c(NC(=O)Cc3ccc(F)c(C(F)(F)F)c3)cccc2c1=O [Compound 304] | < 25 | > 76 | – |
| Cc1ccc2c(=O)n([C@H](C)CO)ccc2c1NC(=O)Cc1ccc(Cl)c(F)c1 [Compound 398] | > 75 | – | pIC50 (P2X7 receptor): 8.27; inhibition at 0.3 µM (P2X7 receptor; "+" symbols = compound at 0.3 μM): > 76% |
| CC(C(=O)Nc1cccc2c(=O)n([C@H](C)C(N)=O)ccc12)c1cccc(C(F)(F)F)c1F (stereo partly shown) [Compound 337] | < 25 | > 76 | – |
| Cc1ccc2c(=O)n([C@H](C)CO)ccc2c1NC(=O)Cc1ccc(C(F)(F)F)cc1 [Compound 397] | 51 to 75 (≈ 21.3 to 31.4 µg/mL) | > 76 | pIC50 (P2X7 receptor): 7.19 |
| O=C(Cc1ccc(Cl)c(Cl)c1)Nc1cccc2c(=O)n(C(CO)CO)ccc12 [Compound 80] | > 75 | – | inhibition at 0.3 µM (P2X7 receptor; 0.3 μM compound (symbols +)): > 76% |
| C[C@H](C(N)=O)n1ccc2c(NC(=O)Cc3ccc(C(F)(F)F)c(F)c3)cccc2c1=O [Compound 306] | < 25 | > 76 | – |
| C[C@@H](C(=O)Nc1cccc2c(=O)n([C@@H](C)C(N)=O)ccc12)c1ccc(Cl)cc1 [Compound 266] | > 75 | > 76 | – |
| O=C(Cc1ccc(Cl)cc1Cl)Nc1cccc2c(=O)n(CCO)ccc12 [Compound 69] | < 25 | – | inhibition at 0.3 µM (P2X7 receptor; 0.3 μM compound (symbols +)): > 76% |
| CC(C)[C@H](C(N)=O)n1ccc2c(NC(=O)[C@H](C)c3ccc(Cl)cc3)cccc2c1=O [Compound 284, (R)-2-{5-[(R)-2-(4-Chloro-phenyl)-propionylamino]-1-oxo-1H-isoquinolin-2-yl}-3-methyl-butyramide] | > 75 | > 76 | – |
| C[C@H](C(N)=O)n1ccc2c(NC(=O)Cc3ccc(F)c(Cl)c3)cccc2c1=O [Compound 301] | 26 to 50 (≈ 10.4 to 20.1 µg/mL) | > 76 | – |
| C[C@H](C(N)=O)n1ccc2c(NC(=O)Cc3ccc(Cl)c(F)c3)cccc2c1=O [Compound 300] | < 25 | > 76 | – |
| NC(=O)Cn1ccc2c(NC(=O)Cc3ccc(Cl)c(C(F)(F)F)c3)cccc2c1=O [Compound 249, 2-{5-[2-(4-Chloro-3-trifluoromethyl-phenyl)-acetylamino]-1-oxo-1H-isoquinolin-2-yl}-acetamide] | < 25 | > 76 | – |
| C[C@H](C(N)=O)n1ccc2c(NC(=O)[C@H](C)c3ccc(Cl)cc3)cccc2c1=O [Compound 262] | > 75 | > 76 | – |
| CNC(=O)[C@@H](CO)n1ccc2c(NC(=O)C(C)c3ccc(Cl)c(Cl)c3)cccc2c1=O (stereo partly drawn) [Compound 270, (R)-2-{5-[2-(3,4-Dichloro-phenyl)-propionylamino]-1-oxo-1H-isoquinolin-2-yl}-3-hydroxy-N-methyl-propionamide] | – | > 76 | – |
| C[C@H](C(=O)Nc1cccc2c(=O)n([C@@H](C)CO)ccc12)c1ccc(Cl)c(Cl)c1 [Compound 326] | – | 51 to 75 | – |
| O=C(CCc1cc(C(F)(F)F)cc(C(F)(F)F)c1)Nc1cccc2c(=O)n(CCO)ccc12 [Compound 61] | – | – | inhibition at 0.3 µM (P2X7 receptor; 0.3 μM compound (symbols +)): 0 to 25% |
| O=C(Cc1ccccc1)Nc1cccc2c(=O)n(CCO)ccc12 [Compound 76] | – | – | inhibition at 0.3 µM (P2X7 receptor; 0.3 μM compound (symbols +)): 0 to 25% |
| C[C@H](C(N)=O)n1ccc2c(NC(=O)Cc3ccc(F)c(F)c3)cccc2c1=O [Compound 303] | – | > 76 | – |
| COc1ccc(C(=O)Nc2cccc3c(=O)n(C(C)CO)ccc23)cc1C (stereo not shown) [Compound 123] | – | – | inhibition at 0.1 µM (P2X7 receptor; 0.1 μM compound (symbols *)): 0 to 25% |

| SMILES | solubility [1] [µM] | inhibition at 0.3 µM (P2X7 receptor; 0.3 μM compound, "+" symbols) [%] | other results |
| --- | --- | --- | --- |
| Cc1ccc(CC(=O)Nc2cccc3c(=O)n(CC(C)(C)O)ccc23)cc1 [Compound 216] | – | – | inhibition at 0.1 µM (P2X7 receptor; 0.1 μM compound, "*" symbols): 0 to 25% |
| C[C@H](C(=O)Nc1c(Cl)ccc2c(=O)n([C@H](C)C(N)=O)ccc12)c1ccc(Cl)cc1 [Compound 340] | – | > 76 | – |
| CC(C)(O)Cn1ccc2c(NC(=O)CCc3ccc4c(c3)OCO4)cccc2c1=O [Compound 195] | – | – | inhibition at 0.1 µM (P2X7 receptor; 0.1 μM compound (symbols *)): 0 to 25% |
| O=C(Nc1cccc2c(=O)n(CC3(O)CCCCC3)ccc12)c1ccc(-c2ccccc2)o1 [Compound 9] | – | – | inhibition at 0.1 µM (P2X7 receptor; 0.1 μM compound (symbols *)): 0 to 25% |
| C[C@@H](CO)n1ccc2c(NC(=O)Cc3ccc(F)c(C(F)(F)F)c3)cccc2c1=O [Compound 338] | – | > 76 | – |
| Cc1cccc(C(=O)Nc2cccc3c(=O)n(CC(C)O)ccc23)c1 (stereo not shown) [Compound 144] | – | – | inhibition at 0.1 µM (P2X7 receptor; 0.1 μM compound (symbols *)): 0 to 25% |
| CCOc1cccc(C(=O)Nc2cccc3c(=O)n(CC(C)O)ccc23)c1 (stereo not shown) [Compound 132] | – | – | inhibition at 0.1 µM (P2X7 receptor; 0.1 μM compound (symbols *)): 0 to 25% |
| COc1ccc(CCC(=O)Nc2cccc3c(=O)n(C(C)CO)ccc23)cc1 (stereo not shown) [Compound 105] | – | – | inhibition at 0.1 µM (P2X7 receptor; 0.1 μM compound (symbols *)): 0 to 25% |
| Cc1ccccc1CC(=O)Nc1cccc2c(=O)n(CC(C)(C)O)ccc12 [Compound 211] | – | – | inhibition at 0.1 µM (P2X7 receptor; 0.1 μM compound, "*" symbols): 0 to 25% |
| Cc1ccc2c(=O)n([C@H](C)CO)ccc2c1NC(=O)Cc1cccc(C(F)(F)F)c1F [Compound 395] | > 75 | > 76 | pIC50 (P2X7 receptor): 8.03 |
| CC(CO)n1ccc2c(NC(=O)c3cc4ccccc4o3)cccc2c1=O (stereo not shown) [Compound 112] | – | – | inhibition at 0.1 µM (P2X7 receptor; 0.1 μM compound (symbols *)): 0 to 25% |
| COc1cccc(CCC(=O)Nc2cccc3c(=O)n(C(C)CO)ccc23)c1 (stereo not shown) [Compound 91] | – | – | inhibition at 0.1 µM (P2X7 receptor; 0.1 μM compound (symbols *)): 0 to 25% |
| C[C@H](C(N)=O)n1ccc2c(NC(=O)Cc3cccc(C#N)c3)cccc2c1=O [Compound 288] | – | 0 to 25 | – |
| C[C@H](C(=O)Nc1cccc2c(=O)n(C(C(N)=O)c3ccc(Cl)cc3)ccc12)c1ccc(Cl)cc1 (stereo partly drawn) [Compound 315, (S)—N-{2-[Carbamoyl-(4-chloro-phenyl)-methyl]-1-oxo-1,2-dihydro-isoquinolin-5-yl}-2-(4-chloro-phenyl)-propionamide] | – | 51 to 75 | – |
| C[C@H](C(N)=O)n1ccc2c(NC(=O)Cc3cc(F)c(F)c(F)c3)cccc2c1=O [Compound 381] | – | > 76 | – |
| C[C@H](C(N)=O)n1ccc2c(NC(=O)Cc3cccc(C(F)(F)F)c3)cccc2c1=O [Compound 297] | – | > 76 | – |
| CC(CO)n1ccc2c(NC(=O)c3cccc4ccccc34)cccc2c1=O (stereo not shown) [Compound 106] | – | – | inhibition at 0.1 µM (P2X7 receptor; 0.1 μM compound (symbols *)): 0 to 25% |
| C[C@H](C(N)=O)n1ccc2c(NC(=O)Cc3c(F)cccc3C(F)(F)F)cccc2c1=O [Compound 286] | – | 26 to 50 | – |
| Cc1ccccc1CCC(=O)Nc1cccc2c(=O)n(CC3(O)CCCCC3)ccc12 [Compound 84] | – | – | inhibition at 0.1 µM (P2X7 receptor; 0.1 μM compound (symbols *)): 0 to 25% |
| Cc1ccccc1CCC(=O)Nc1cccc2c(=O)n(C(C)CO)ccc12 (stereo not shown) [Compound 90] | – | – | inhibition at 0.1 µM (P2X7 receptor; 0.1 μM compound (symbols *)): 26 to 50% |
| Cc1cc(C(=O)Nc2cccc3c(=O)n(CC4(O)CCCCC4)ccc23)ccc1F [Compound 48] | – | – | inhibition at 0.3 µM (P2X7 receptor; 0.3 μM compound (symbols +)): 0 to 25% |
| O=C(Cc1ccc(Cl)cc1C(F)(F)F)Nc1cccc2c(=O)n(CCO)ccc12 [Compound 229] | – | 51 to 75 | – |
| CS(=O)(=O)c1ccc(CC(=O)Nc2cccc3c(=O)n(CCO)ccc23)cc1 [Compound 72] | – | – | inhibition at 0.3 µM (P2X7 receptor; 0.3 μM compound (symbols +)): 0 to 25% |
| Cc1ccc(C)c(C(=O)Nc2cccc3c(=O)n(CC(C)(C)O)ccc23)c1 [Compound 202] | – | – | inhibition at 0.1 µM (P2X7 receptor; 0.1 μM compound, "*" symbols): 0 to 25% |
| C[C@H](C(N)=O)n1ccc2c(NC(=O)Cc3ccc(Cl)nc3)cccc2c1=O [Compound 312] | – | 0 to 25 | – |
